These compounds were tested against Carbonic anhydrase 2 (Bos taurus, UniProt P00921) (assay: Binding affinity to bovine carbonic anhydrase 2).
Chain of Carbonic anhydrase 2 (P00921 whole entry): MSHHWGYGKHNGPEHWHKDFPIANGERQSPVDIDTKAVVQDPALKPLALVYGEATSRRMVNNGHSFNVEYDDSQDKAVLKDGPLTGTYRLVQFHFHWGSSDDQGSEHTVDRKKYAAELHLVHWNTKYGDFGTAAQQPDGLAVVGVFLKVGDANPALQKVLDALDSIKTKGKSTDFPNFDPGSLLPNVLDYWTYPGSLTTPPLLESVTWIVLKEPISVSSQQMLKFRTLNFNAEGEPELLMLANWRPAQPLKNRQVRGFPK

| Structure (SMILES) | Ki [nM] |
| --- | --- |
| Cc1ccc(S(N)(=O)=O)cc1 | 58 |
| Cc1cccc(S(N)(=O)=O)c1 [3-Methylbenzenesulfonamide] | 132 |
| NS(=O)(=O)c1ccc([N+](=O)[O-])c(C(F)(F)F)c1 | 1.7 |
| NS(=O)(=O)c1ccc(Cl)c(Cl)c1 [3,4-Dichloro-Benzenesulfonamide] | 2.5 |
| NS(=O)(=O)c1cccc(Cl)c1 [3-Chloro-Benzenesulfonamide] | 16 |
| NS(=O)(=O)c1cccc([N+](=O)[O-])c1 [3-Nitro-benzenesulfonamide] | 8.5 |
| CC(=O)c1ccc(S(N)(=O)=O)cc1 [4-Acetyl-Benzenesulfonamide] | 17 |

More lines, now with the values ahead:

| Ki [nM] | Structure (SMILES) |
| --- | --- |
| 2 | NS(=O)(=O)c1ccc(Cl)c([N+](=O)[O-])c1 [4-Chloro-3-nitro-benzenesulfonamide] |
| 288 | CNc1ccc(S(N)(=O)=O)cc1 [4-Methylamino-benzenesulfonamide] |
| 7.1 | N#Cc1ccc(S(N)(=O)=O)cc1 [4-Cyano-Benzenesulfonamide] |
| 102 | COc1ccc(S(N)(=O)=O)cc1 [4-Methoxy-Benzenesulfonamide] |
| 14 | NS(=O)(=O)c1ccc(Br)cc1 [p-Halide-sulfanilamide derivative, 2a] |
| 14 | NS(=O)(=O)c1ccc(Cl)cc1 [p-Halide-sulfanilamide derivative, 2] |
